US20110166112A1, “METHOD FOR STIMULATING PLATELET PRODUCTION” (Eisai, Inc., priority 2009, published 2011)

Test system: subjects with chronic ITP who completed 28 days of study treatment
Assay: Phase 2 6-month rollover study of E5501: effectiveness (durable, transient, overall platelet response, maintenance, steroid use, upward dose titration)
Assay type: in vivo, human
Method: This study was a multicenter, parallel-group, rollover study of E5501 in subjects with chronic ITP who were enrolled in and completed 28 days' of study treatment. All subjects who completed the previous study and otherwise met the eligibility criteria for this rollover protocol were enrolled.
Subjects who rolled over from the previous study were treated for an additional 6 months after completing previous study.
Initial dose: Subjects who met the efficacy response in the previous study continued to receive their previous blinded dose at entry into this study.
Dose titration was performed in an open label fashion in 10 mg increments as follows: • Nonresponders, who received initial doses of open-label E5501 10 mg in the previous study, could have their dose increased in 10 mg increments every 14 days to a maximum of 40 mg/day in the absence of platelet response.
Subjects were also permitted to reduce their dose of ITP-directed concomitant therapy (e.g., steroids). The overall goal of any dose modification was to maintain the subject's peripheral platelet count above 50,000/mm^3 and to decrease the need for ITP-directed concomitant medications (if applicable). During any dose modification of study drug or ITP-directed concomitant medications, platelet counts were collected every week. After platelet counts stabilized, platelet count collection reverted to a biweekly schedule.
Assessments: Study subjects were evaluated for safety and efficacy (including platelet count) on day 1 and then biweekly while receiving treatment.
Two primary analysis populations were used to summarize safety and effectiveness: • Safety population: all subjects who received at least 1 dose of study drug and had at least 1 post-treatment safety assessment in either the previous or this study. All safety analyses were performed using this population. • Full Analysis Set (FAS): all subjects who participated in both studies and who had at least one post-treatment effectiveness assessment in this study. All efficacy analyses were performed using this population.
Secondary Endpoints: The secondary endpoints were markers of effectiveness, including: • 1. Changes in platelet count from baselines of the previous study and of this study by study visit; and • 2. Durable platelet response, defined as subjects who had at least 3 platelet count assessments in the last 14 weeks of the 24-week treatment period, and whose platelet count was at a response level for at least 75% of the time in the last 14 weeks during the 24-week treatment period, with no rescue medication used during the 24-week treatment period. Platelet response level was defined as ≧50,000/mm^3 for subjects whose baseline platelet count was <30,000/mm^3 in the previous study or an increase in baseline platelet count of ≧20,000/mm^3 for subjects receiving steroids whose baseline platelet count in the previous study was ≧30,000/mm^3 but <50,000/mm^3; • 3. Transient platelet response, defined as achievement of a response level for any 4 consecutive weeks during the 24-week treatment period without durable platelet response in the absence of any rescue medication; • 4. Overall platelet response (durable platelet response plus transient platelet response); • 5. Maintenance of platelet response, defined as subjects who were responders in the previous study (e.g., responders on day 28 of the previous study) who achieved a durable response in this study and had no upward dose titration of E5501 during this study; • 6. Permanent discontinuation of steroid use, defined as subjects who used steroid medication within the 2-week period before their first dose of study drug in this study, and for whom concomitant steroid medication was discontinued at least 8 weeks before the end of the treatment period; • 7. Reduction of steroid use by at least 50%. […]

[1] = FAS, Baseline PC >15K/mm^3, Responders, N assessed 19
[2] = FAS, Baseline PC ≦15K/mm^3, E5501 Total, N assessed 15
[3] = FAS, Baseline PC ≦15K/mm^3, Non-Responders, N assessed 9
[4] = FAS, Baseline PC ≦15K/mm^3, Responders, N assessed 6
[5] = FAS, History of Splenectomy, E5501 Total, N assessed 17
[6] = FAS, History of Splenectomy, Non-Responders, N assessed 10
[7] = FAS, History of Splenectomy, Responders, N assessed 7
[8] = FAS, No History of Splenectomy, E5501 Total, N assessed 36
[9] = FAS, No History of Splenectomy, Non-Responders, N assessed 18
[10] = FAS, No History of Splenectomy, Responders, N assessed 18
[11] = FAS, ≧3 Lines of Prior Therapy, E5501 Total, N assessed 35
[12] = FAS, ≧3 Lines of Prior Therapy, Non-Responders, N assessed 22
[13] = FAS, ≧3 Lines of Prior Therapy, Responders, N assessed 13
[14] = SE population, E5501 Total (N=36)
[15] = SE population, Non-Responders (N=15)
[16] = SE population, Responders (N=21)

Structure (SMILES): O=C(Nc1nc(-c2cc(Cl)cs2)c(N2CCN(C3CCCCC3)CC2)s1)c1cnc(N2CCC(C(=O)O)CC2)c(Cl)c1 [E5501, 1-(3-chloro-5-{[4-(4-chlorothiophen-2-yl)-5-(4-cyclohexylpiperazin-1-yl)thiazol-2-yl]carbamoyl}pyridine-2-yl)piperidine-4-carboxylic acid]
- Durable Platelet Response, n (%) with response [1]: 15 (78.9) n (%)
- Overall Platelet Response, n (%) with response [1]: 18 (94.7) n (%)
- Durable Platelet Response, n (%) with response [2]: 4 (26.7) n (%)
- Overall Platelet Response, n (%) with response [2]: 7 (46.7) n (%)
- Durable Platelet Response, n (%) with response [3]: 1 (11.1) n (%)
- Overall Platelet Response, n (%) with response [3]: 3 (33.3) n (%)
- Durable Platelet Response, n (%) with response [4]: 3 (50.0) n (%)
- Overall Platelet Response, n (%) with response [4]: 4 (66.7) n (%)
- Durable Platelet Response, n (%) with response [5]: 5 (29.4) n (%)
- Overall Platelet Response, n (%) with response [5]: 10 (58.8) n (%)
- Durable Platelet Response, n (%) with response [6]: 1 (10.0) n (%)
- Overall Platelet Response, n (%) with response [6]: 5 (50.0) n (%)
- Durable Platelet Response, n (%) with response [7]: 4 (57.1) n (%)
- Overall Platelet Response, n (%) with response [7]: 5 (71.4) n (%)
- Durable Platelet Response, n (%) with response [8]: 23 (63.9) n (%)
- Overall Platelet Response, n (%) with response [8]: 30 (83.3) n (%)
- Durable Platelet Response, n (%) with response [9]: 9 (50.0) n (%)
- Overall Platelet Response, n (%) with response [9]: 13 (72.2) n (%)
- Durable Platelet Response, n (%) with response [10]: 14 (77.8) n (%)
- Overall Platelet Response, n (%) with response [10]: 17 (94.4) n (%)
- overall platelet response rate (FAS, all subjects): 75.5%
- overall platelet response rate (FAS, nonresponders): 64.3%
- overall platelet response rate (FAS, responders): 88.0%
- Durable Platelet Response, n (%) with response [11]: 16 (45.7) n (%)
- Overall Platelet Response, n (%) with response [11]: 25 (71.4) n (%)
- Durable Platelet Response, n (%) with response [12]: 7 (31.8) n (%)
- Overall Platelet Response, n (%) with response [12]: 14 (63.6) n (%)
- Durable Platelet Response, n (%) with response [13]: 9 (69.2) n (%)
- Overall Platelet Response, n (%) with response [13]: 11 (84.6) n (%)
- overall platelet response rate (SE population): 94.4%
- Durable Platelet Response No, % [14]: (25.0) %
- Durable Platelet Response Yes, % [14]: (75.0) %
- Transient Platelet Response No, % [14]: (80.6) %
- Transient Platelet Response Yes, % [14]: (19.4) %
- With Overall Response No, % [14]: (5.6) %
- With Overall Response Yes, % [14]: (94.4) %
- Durable Platelet Response No, % [15]: (40.0) %
- Durable Platelet Response Yes, % [15]: (60.0) %
- Transient Platelet Response No, % [15]: (73.3) %
- Transient Platelet Response Yes, % [15]: (26.7) %
- With Overall Response No, % [15]: (13.3) %
- With Overall Response Yes, % [15]: (86.7) %
- Durable Platelet Response No, % [16]: (14.3) %
- Durable Platelet Response Yes, % [16]: (85.7) %
- Transient Platelet Response No, % [16]: (85.7) %
- Transient Platelet Response Yes, % [16]: (14.3) %
- With Overall Response Yes, % [16]: (100.0) %
- Durable platelet response rate (SE population, all subjects): 75%
- Durable platelet response rate (SE population, non-responders): 60.0%
- Durable platelet response rate (SE population, responders): 85.7%
- subjects who needed an upward dose titration (all subjects (n=26/53)): 49%
- subjects able to decrease their steroid dose by at least 50% (in vivo): Thirteen
- improved overall response rate when subjects received a dose titration (non-responders in the previous study): 87.6%
- overall response rate (non-responders on E5501 2.5 mg in previous study, open-label E5501 10 mg in current study): 70%
- overall response rate (non-responders on E5501 5 mg in previous study, open-label E5501 10 mg in current study): 80%
- overall response rate (non-responders on placebo in previous study, open-label E5501 10 mg in current study): 80%
- subjects not responding to E5501 10 mg in the previous study who responded at 20 mg (of five subjects): Two
- subjects who used concomitant steroids able to decrease their concomitant steroid use by at least 50% (regardless of responder status): 54.2%
- subjects who used concomitant steroids able to permanently discontinue using steroids (regardless of responder status): 33.3%
- overall response when subjects received a dose titration (responders in the previous study): 100%
- overall response rate (responders receiving double-blind E5501 10 mg): 71.4%
- platelet counts from baseline (FIG. 2 FAS, FIG. 3 SE population) (rollover study): markedly increased from baseline
- durable platelet response estimate (sensitivity analysis based on 55 subjects, all subjects): 50.9%
- durable platelet response estimate (sensitivity analysis, non-responders): 33.3%
- durable platelet response estimate (sensitivity analysis, responders): 72%
